Assay results taken from patent publication US20230002334A1, “TRPM8 MODULATORS” (Givaudan SA, priority 2019, published 2023).

Columns and labels:
[1] = tested on: panelists (mouth, mucosa); test: Sensory studies in aqueous solution (trained panel, swilling in the mouth); type: in vivo, human; details: 40 ppm in aqueous solution; for time of max cooling / Max. cooling: 20 mL swilled 60 seconds; for Max. cooling / Cooling after 1 h: averaged panel score on scale 0 to 10; for Cooling after 1 h: 1 h after swilling
Method: The compounds as listed below in Table 2 were dissolved at a concenteration of 1 wt-% in propylene glycol. These solutions were then dispensed in appropriate quantities into deionized water containing 0.5 wt-% Poloxamer 407 (which is a hydrophilic non-ionic surfactant, e.g., commercially available from SigmaAldrich) and 0.25 wt-% Cremaphor® RH40 (obtained from BASF) as solubilizer, to obtain the desired final concentration of 40 ppm (parts per milion) of the respective compound.
A trained group of panelists evaluated the aqueous solutions containing test compound by swilling 20 mL of the solution in the mouth for 60 seconds, followed by spitting, without rinsing the mouth afterwards for the duration of the evaluation. Panelists evaluated and recorded the cooling performance as well as other sensorial and organoleptic attributes at different timepoints over a period of two hours. Cooling performance was rated on a scale from 0 to 10 with 0 being no effect and 10 being freezing. Scores were averaged for all panelists and the cooling intensity qualified as “N” for “none” (score of 0), “L” for “low” (score above 0, up to 1), “M” for “medium” (score above 1, up to 4), “S” for “strong” (score above 4, up to 8) and “E” for “extreme” (score above 8), which are provided in Table 2. […] All tasted samples developed cooling sensation starting during swilling (almost immediately upon contact with the mucosa) and before expectorating.

hTRPM8 = target: T1, hTRPM8 (Homo sapiens, UniProt Q7Z2W7); test: Assay on TRPM8 modulators: calcium imaging (Fluo-4, Flexstation) in HEK293 cell line stably expressing hTRPM8; type: cell-based; details: HEK293 cells stably expressing hTRPM8, calcium influx, sigmoidal dose-response fit; read-out: EC50
T1 construct: expressed in transfected cells
Summary of the method: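 Calcium influx monitored by Fluo-4 (2.7 μM with […] probenecid, 1 h 37 °C loading) in HEK293 cells stably expressing hTRPM8, in HEPES buffer pH 7.4 with 2 mM CaCl2. Fluorescence read 15 s before and 105 s after adding serial compound dilutions. Maximal activation relative to solvent and 31.6 μM menthol; EC50 from sigmoidal fit.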

T1 sequence (Q7Z2W7 whole entry): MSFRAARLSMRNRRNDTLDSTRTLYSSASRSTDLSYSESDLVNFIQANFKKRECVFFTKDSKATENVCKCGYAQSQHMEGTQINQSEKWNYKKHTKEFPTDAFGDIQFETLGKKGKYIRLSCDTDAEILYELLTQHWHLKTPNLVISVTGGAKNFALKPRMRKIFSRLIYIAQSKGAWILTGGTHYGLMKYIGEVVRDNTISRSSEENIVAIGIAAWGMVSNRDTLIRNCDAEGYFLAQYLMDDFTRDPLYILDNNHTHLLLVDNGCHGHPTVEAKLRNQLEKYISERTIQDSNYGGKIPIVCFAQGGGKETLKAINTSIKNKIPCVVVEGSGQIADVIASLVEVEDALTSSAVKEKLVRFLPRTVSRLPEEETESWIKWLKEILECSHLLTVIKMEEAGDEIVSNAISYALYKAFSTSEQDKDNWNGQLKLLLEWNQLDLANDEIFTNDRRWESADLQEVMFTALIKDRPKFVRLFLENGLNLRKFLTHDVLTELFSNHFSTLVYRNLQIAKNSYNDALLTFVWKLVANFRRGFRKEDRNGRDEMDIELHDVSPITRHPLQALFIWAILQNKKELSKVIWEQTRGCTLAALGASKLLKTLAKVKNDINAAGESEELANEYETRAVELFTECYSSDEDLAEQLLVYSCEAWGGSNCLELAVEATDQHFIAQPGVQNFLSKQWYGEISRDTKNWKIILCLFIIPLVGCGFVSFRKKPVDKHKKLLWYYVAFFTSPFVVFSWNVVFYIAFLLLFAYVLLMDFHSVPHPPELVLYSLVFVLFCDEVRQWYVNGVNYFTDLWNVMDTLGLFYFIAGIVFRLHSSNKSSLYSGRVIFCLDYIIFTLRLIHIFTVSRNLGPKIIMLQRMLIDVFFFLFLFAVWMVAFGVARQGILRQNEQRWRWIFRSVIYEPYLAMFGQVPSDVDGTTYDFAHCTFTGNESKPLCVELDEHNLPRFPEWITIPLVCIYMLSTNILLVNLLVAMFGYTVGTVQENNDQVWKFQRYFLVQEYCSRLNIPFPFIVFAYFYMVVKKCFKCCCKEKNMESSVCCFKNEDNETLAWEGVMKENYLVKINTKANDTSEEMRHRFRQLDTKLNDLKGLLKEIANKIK

Compound	EC50 (hTRPM8) [nM]	also measured
CC(C)=CCC1(C)CC(C)C2C(C1)C(C)(C)ON2C (centres unmarked) [Compound 1, 1,3,3,5,7-pentamethyl-5-(3-methylbut-2-en-1-yl)octahydrobenzo[c]isoxazole]	300 to 1000	time of max cooling [1]: 20 min; Max. cooling [1]: M (“M” for “medium” (score above 1, up to 4)); Cooling after 1 h [1]: M (“M” for “medium” (score above 1, up to 4))
CC1CC(C)C2C(C1)C(C)(C)ON2C(C)C (centres unmarked) [Compound 12, 1-isopropyl-3,3,5,7-tetramethyloctahydrobenzo[c]isoxazole]	300 to 1000	time of max cooling [1]: 5 min; Max. cooling [1]: M (“M” for “medium” (score above 1, up to 4)); Cooling after 1 h [1]: L (“L” for “low” (score above 0, up to 1))
COc1ccccc1[C@H]1C[C@@H]2[C@@H]([C@@H](C)C1)N(C(C)C)OC2(C)C (racemic) [Compound 66, rac-(3aR,5R,7S,7aR)-1-isopropyl-5-(2-methoxyphenyl)-3,3,7-trimethyloctahydrobenzo[c]isoxazole]	< 50	time of max cooling [1]: 20 min; Max. cooling [1]: M (“M” for “medium” (score above 1, up to 4)); Cooling after 1 h [1]: M (“M” for “medium” (score above 1, up to 4))
Cc1ccc(C#N)c([C@@]2(C)C[C@@H]3[C@@H]([C@@H](C)C2)N(C)OC3(C)C)c1 (racemic) [Compound 134, rac-4-methyl-2-((3aR,5R,7S,7aR)-1,3,3,5,7-pentamethyloctahydrobenzo[c]isoxazol-5-yl)benzonitrile]	50 to 300	–
CC1CC(C)[C@@H]2[C@@H](C1C)C(C)(C)ON2C (mixture of isomers) [Compound 114, rac-(3aR,7aR)-1,3,3,4,5,7-hexamethyloctahydrobenzo[c]isoxazole]	1000 to 35000	–
Cc1cc(F)ccc1[C@H]1C[C@@H]2[C@@H]([C@@H](C)C1)N(C)OC2(C)C (racemic) [Compound 101, rac-(3aR,5R,7S,7aR)-5-(4-fluoro-2-methylphenyl)-1,3,3,7-tetramethyloctahydrobenzo[c]isoxazole]	50 to 300	–
Cc1cc(F)ccc1[C@]1(C)C[C@@H](C)[C@@H]2[C@@H](C1)C(C)(C)ON2C (racemic) [Compound 35, rac-(3aR,5R,7R,7aR)-5-(4-fluoro-2-methylphenyl)-1,3,3,5,7-pentamethyloctahydrobenzo[c]isoxazole]	1000 to 35000	–
CC1CC(C)(c2ccccc2C#N)CC2C1N(C)OC2(C)C (centres unmarked) [Compound 14, 2-(1,3,3,5,7-pentamethyloctahydrobenzo[c]isoxazol-5-yl)benzonitrile]	50 to 300	–
CC1CC(C)[C@H]2[C@@H](C1C)C(C)(C)ON2C (mixture of isomers) [Compound 117, rac-(3aR,7aS)-1,3,3,4,5,7-hexamethyloctahydrobenzo[c]isoxazole]	1000 to 35000	–
COc1ccccc1[C@@]1(C)C[C@@H]2[C@@H]([C@@H](C)C1)N(C)OC2(C)C (racemic) [Compound 82, rac-(3aR,5R,7S,7aR)-5-(2-methoxyphenyl)-1,3,3,5,7-pentamethyloctahydrobenzo[c]isoxazole]	50 to 300	–
Cc1ccc(C)c([C@@]2(C)C[C@@H]3[C@@H]([C@@H](C)C2)N(C)OC3(C)C)c1 (racemic) [Compound 74, rac-(3aR,5R,7S,7aR)-5-(2,5-dimethylphenyl)-1,3,3,5,7-pentamethyloctahydrobenzo[c]isoxazole]	< 50	–
Cc1ccncc1C1(C)CC(C)C2C(C1)C(C)(C)ON2C (centres unmarked) [Compound 2, 1,3,3,5,7-pentamethyl-5-(4-methylpyridin-3-yl)octahydrobenzo[c]isoxazole]	300 to 1000	–
COc1cccc([C@@]2(C)C[C@@H]3[C@@H]([C@@H](C)C2)N(C)OC3(C)C)c1 (racemic) [Compound 94, rac-(3aR,5R,7S,7aR)-5-(3-methoxyphenyl)-1,3,3,5,7-pentamethyloctahydrobenzo[c]isoxazole]	50 to 300	–
CC(C)=CC[C@@]1(C)C[C@@H]2[C@@H]([C@@H](C)C1)N(C(C)C)OC2(C)C (racemic) [Compound 58, rac-(3aR,5R,7S,7aR)-1-isopropyl-3,3,5,7-tetramethyl-5-(3-methylbut-2-en-1-yl)octahydrobenzo[c]isoxazole]	50 to 300	–
C[C@H]1C[C@@](C)(c2ccc(C(C)(C)C)cc2)C[C@@H]2[C@@H]1N(C)OC2(C)C (racemic) [Compound 95, rac-(3aR,5R,7S,7aR)-5-(4-(tert-butyl)phenyl)-1,3,3,5,7-pentamethyloctahydrobenzo[c]isoxazole]	1000 to 35000	–
CCC1CC(CC)C2C(C1)C(C)(C)ON2C (centres unmarked) [Compound 19, 5,7-diethyl-1,3,3-trimethyloctahydrobenzo[c]isoxazole]	1000 to 35000	–

Compound	EC50 (hTRPM8) [nM]	also measured
Cc1ccc(C(F)(F)F)cc1[C@@]1(C)C[C@@H]2[C@@H]([C@@H](C)C1)N(C)OC2(C)C (racemic) [Compound 39, rac-(3aR,5R,7S,7aR)-1,3,3,5,7-pentamethyl-5-(2-methyl-5-(trifluoromethyl)phenyl)octahydrobenzo[c]isoxazole]	300 to 1000	–
CSc1ccccc1[C@@]1(C)C[C@@H]2[C@@H]([C@@H](C)C1)N(C)OC2(C)C (racemic) [Compound 37, rac-(3aR,5R,7S,7aR)-1,3,3,5,7-pentamethyl-5-(2-(methylthio)phenyl)octahydrobenzo[c]isoxazole]	50 to 300	–
CCN1OC(C)(C)[C@@H]2C[C@H](C)C[C@H](C)[C@H]21 (racemic) [Compound 56, rac-(3aR,5R,7S,7aR)-1-ethyl-3,3,5,7-tetramethyloctahydrobenzo[c]isoxazole]	1000 to 35000	–
CC(C)CCC1CC(C)C2C(C1)C(C)(C)OC(=O)N2C (centres unmarked) [Compound 21, 6-isopentyl-1,4,4,8-tetramethyloctahydro-2H-benzo[d][1,3]oxazin-2-one]	1000 to 35000	–
Cc1ccc(C#N)cc1[C@H]1C[C@@H]2[C@@H]([C@@H](C)C1)N(C)OC2(C)C (racemic) [Compound 136, rac-4-methyl-3-((3aR,5R,7S,7aR)-1,3,3,7-tetramethyloctahydrobenzo[c]isoxazol-5-yl)benzonitrile]	50 to 300	–
COc1cccc([C@@]2(C)C[C@@H]3[C@@H]([C@@H](C)C2)N(C(C)C)OC3(C)C)n1 (racemic) [Compound 68, rac-(3aR,5R,7S,7aR)-1-isopropyl-5-(6-methoxypyridin-2-yl)-3,3,5,7-tetramethyloctahydrobenzo[c]isoxazole]	300 to 1000	–
Cc1ccc(C)c([C@H]2C[C@@H]3[C@@H]([C@@H](C)C2)N(C)OC3(C)C)c1 (racemic) [Compound 75, rac-(3aR,5R,7S,7aR)-5-(2,5-dimethylphenyl)-1,3,3,7-tetramethyloctahydrobenzo[c]isoxazole]	300 to 1000	–
COc1cc(OC)cc([C@@]2(C)C[C@@H]3[C@@H]([C@@H](C)C2)N(C)OC3(C)C)c1 (racemic) [Compound 86, rac-(3aR,5R,7S,7aR)-5-(3,5-dimethoxyphenyl)-1,3,3,5,7-pentamethyloctahydrobenzo[c]isoxazole]	1000 to 35000	–
Cc1cccc([C@@]2(C)C[C@@H]3[C@@H]([C@@H](C)C2)N(C)OC3(C)C)c1 (racemic) [Compound 43, rac-(3aR,5R,7S,7aR)-1,3,3,5,7-pentamethyl-5-(m-tolyl)octahydrobenzo[c]isoxazole]	50 to 300	–
Cc1ccccc1[C@@]1(C)C[C@@H]2[C@@H]([C@@H](C)C1)N(C(C)C)OC2(C)C (racemic) [Compound 59, rac-(3aR,5R,7S,7aR)-1-isopropyl-3,3,5,7-tetramethyl-5-(o-tolyl)octahydrobenzo[c]isoxazole]	50 to 300	–
CCC[C@@]1(C)C[C@@H]2[C@@H]([C@@H](C)C1)N(C(C)C)OC2(C)C (racemic) [Compound 61, rac-(3aR,5R,7S,7aR)-1-isopropyl-3,3,5,7-tetramethyl-5-propyloctahydrobenzo[c]isoxazole]	1000 to 35000	–
C[C@H]1C[C@@](C)(c2ccc3c(c2)OCO3)C[C@@H]2[C@@H]1N(C)OC2(C)C (racemic) [Compound 109, rac-(3aR,5R,7S,7aR)-5-(benzo[d][1,3]dioxol-5-yl)-1,3,3,5,7-pentamethyloctahydrobenzo[c]isoxazole]	300 to 1000	–
COc1ccc(C2(C)CC(C)C3C(C2)C(C)(C)ON3C)c(OC)c1 (centres unmarked) [Compound 16, 5-(2,4-dimethoxyphenyl)-1,3,3,5,7-pentamethyloctahydrobenzo[c]isoxazole]	300 to 1000	–
CCC[C@@H]1CC[C@@H]2[C@@H](C1)C(C)(C)ON2CC (racemic) [Compound 25, rac-(3aR,5R,7aR)-1-ethyl-3,3-dimethyl-5-propyloctahydrobenzo[c]isoxazole]	300 to 1000	–
CCC[C@@H]1CC[C@@H]2[C@@H](C1)C(C)(C)ON2C (racemic) [Compound 24, rac-(3aR,5R,7aR)-1,3,3-trimethyl-5-propyloctahydrobenzo[c]isoxazole]	300 to 1000	–
CCC1CC(CC)[C@@H]2[C@@H](C1)C(C)(C)ON2CC (mixture of isomers) [Compound 116, rac-(3aR,7aR)-1,5,7-triethyl-3,3-dimethyloctahydrobenzo[c]isoxazole]	1000 to 35000	–
